Experimental findings from US8946215B2, “Hydroxy-substituted imidazo[1,2-a]pyridinecarboxamides and their use” (Bayer Pharma Aktiengesellschaft, priority 2012, dated 2015) are described below.

A short description of series [1]: Determination of pharmacokinetic parameters following intravenous and oral administration (rats). In kind it is in vivo, male Wistar rats. As to conditions: following intravenous and peroral administration; for MRT / half-life: male, Wistar, rat, plasma; for MRT: read-out: MRT (Mean Residence Time); for half-life: read-out: t½ (terminal half life) (converted). The protocol:
B-6. Determination of Pharmacokinetic Parameters Following Intravenous and Oral Administration
The pharmacokinetic parameters of the compounds according to the invention are determined in male CD-1 mice, male Wistar rats and female beagles. Intravenous administration in the case of mice and rats is carried out by means of a species-specific plasma/DMSO formulation, and in the case of dogs by means of a water/PEG400/ethanol formulation. In all species, oral administration of the dissolved substance is performed via gavage, based on a water/PEG400/ethanol formulation.
The taking of blood from rats is simplified by inserting a silicone catheter into the right Vena jugularis externa prior to substance administration. The operation is carried out at least one day prior to the experiment with […] and administration of an analgesic (atropin/Rimadyl (3/1) 0.1 ml s.c.). The blood is taken (generally more than 10 time points) within a time window including terminal time points of at least 24 to a maximum of 72 hours after substance administration. When the blood is taken, it is passed into heparinised tubes. Then the blood plasma is obtained by centrifugation and is optionally stored at −20° C. until further processing.
An internal standard (which may also be a chemically unrelated substance) is added to the samples of the compounds according to the invention, calibration samples and qualifiers, and there follows protein precipitation by means of excess acetonitrile. Addition of a buffer solution matched to the LC conditions, and subsequent vortexing, is followed by centrifugation at 1000 g. The supernatant is analysed by LC-MS/MS using C18 reversed-phase columns and variable mobile phase mixtures.
The substances are quantified via the peak heights or areas from extracted ion chromatograms of specific selected ion monitoring experiments.
The plasma concentration/time plots determined are used to calculate the pharmacokinetic parameters such as AUC, Cmax, t1/2 (terminal half life), F (Bioavailability), MRT (Mean Residence Time) and CL (Clearance), using a validated pharmacokinetic calculation programme.
Since the substance quantification is carried out in plasma, it is necessary to determine the blood/plasma distribution of the substance in order to be able to adjust the pharmacokinetic parameters correspondingly. For this purpose, a defined amount of substance is incubated in heparinised whole blood of the species in question in a rocking roller mixer for 20 min. After centrifugation at 1000 g, the plasma concentration is measured (by means of LC-MS/MS; see above) and determined by calculating the ratio of the Cblood/Cplasma value.

Series [2] addresses T1, recombinant guanylate cyclase reporter cell line (Rattus norvegicus, UniProt P19686+P20595).
T1 construct: expressed in transfected cells
T1 sequence (P20595 1-619): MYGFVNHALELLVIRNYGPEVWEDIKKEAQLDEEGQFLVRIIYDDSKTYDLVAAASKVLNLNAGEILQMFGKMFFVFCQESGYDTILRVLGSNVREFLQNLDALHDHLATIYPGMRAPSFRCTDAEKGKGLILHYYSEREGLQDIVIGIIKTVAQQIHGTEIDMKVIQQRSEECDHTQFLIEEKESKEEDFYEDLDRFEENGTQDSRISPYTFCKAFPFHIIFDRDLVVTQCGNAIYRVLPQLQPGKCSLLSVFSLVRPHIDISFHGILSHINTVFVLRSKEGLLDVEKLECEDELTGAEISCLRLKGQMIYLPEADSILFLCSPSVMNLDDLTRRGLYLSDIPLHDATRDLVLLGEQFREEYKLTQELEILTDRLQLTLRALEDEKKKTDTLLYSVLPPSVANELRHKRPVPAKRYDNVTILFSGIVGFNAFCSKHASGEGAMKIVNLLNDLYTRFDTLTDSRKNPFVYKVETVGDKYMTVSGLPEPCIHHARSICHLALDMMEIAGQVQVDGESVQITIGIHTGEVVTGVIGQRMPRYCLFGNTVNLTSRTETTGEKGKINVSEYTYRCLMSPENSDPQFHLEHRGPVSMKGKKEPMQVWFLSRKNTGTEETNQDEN
T1 sequence (P19686 1-690): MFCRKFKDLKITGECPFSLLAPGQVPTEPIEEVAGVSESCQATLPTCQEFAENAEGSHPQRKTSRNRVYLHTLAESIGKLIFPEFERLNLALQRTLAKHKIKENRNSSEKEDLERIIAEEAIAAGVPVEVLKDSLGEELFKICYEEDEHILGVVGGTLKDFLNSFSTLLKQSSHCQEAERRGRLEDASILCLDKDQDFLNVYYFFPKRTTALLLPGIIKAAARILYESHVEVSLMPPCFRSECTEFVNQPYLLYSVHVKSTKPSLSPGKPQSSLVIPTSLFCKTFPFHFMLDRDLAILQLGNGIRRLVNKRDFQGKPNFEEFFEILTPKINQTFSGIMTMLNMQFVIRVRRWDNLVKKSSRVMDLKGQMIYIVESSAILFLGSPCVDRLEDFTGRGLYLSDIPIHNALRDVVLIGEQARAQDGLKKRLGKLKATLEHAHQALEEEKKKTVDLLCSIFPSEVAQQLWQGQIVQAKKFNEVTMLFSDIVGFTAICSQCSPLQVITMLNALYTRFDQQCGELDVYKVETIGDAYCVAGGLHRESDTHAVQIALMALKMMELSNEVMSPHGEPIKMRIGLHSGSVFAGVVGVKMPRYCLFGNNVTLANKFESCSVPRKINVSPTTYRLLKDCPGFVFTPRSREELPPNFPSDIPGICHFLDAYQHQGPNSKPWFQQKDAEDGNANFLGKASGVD
In words: Action on recombinant guanylate cyclase reporter cell line. The series is classed as cell-based. As to conditions: in some cases mean values obtained from individual determinations. The gist of the method: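 Cell-based reporter assay with recombinant guanylate cyclase expressed in a reporter cell line, per a published method. Activity reported as minimal effective concentration (MEC), in some cases as the mean of individual determinations.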

In general, MRT refers to a mean duration of stay, worked out from the concentration-time curve. As a reminder, the half-life is the time in which the quantity being followed falls by half. On to `Cc1nc2c(OCc3ncccc3F)cc(Cl)cn2c1C(=O)NC(CCCC(F)(F)F)C(C)(C)O` (single isomer, unassigned; ent-6) [Example 188, ent-6-chloro-8-[(3-fluoropyridin-2-yl)methoxy]-2-methyl-N-(7,7,7-trifluoro-2-hydroxy-2-methylheptan-3-yl)imidazo[1,2-a]pyridine-3-carboxamide (enantiomer A)], for which, in series [1], the AUCnorm amounted to 2.3 kg·h/L, the CLblood was 8.83 mL/min/kg, the MRT was found to be 2.5 h and the half-life was 1.7 h. The “MEC (minimal effective concentration)” value in series [2] is 0.3 µM.

Regarding `Cc1nc2c(OCc3ncccc3F)cc(Cl)cn2c1C(=O)NC(CCC(F)(F)C(F)(F)F)C(C)(C)O` (single isomer, unassigned; ent-6) [Example 194, ent-6-chloro-8-[(3-fluoropyridin-2-yl)methoxy]-2-methyl-N-(6,6,7,7,7-pentafluoro-2-hydroxy-2-methylheptan-3-yl)imidazo[1,2-a]pyridine-3-carboxamide (enantiomer A)], in series [1], the AUCnorm is 2.9 kg·h/L, the CLblood was 7.33 mL/min/kg, the MRT came out at 8.4 h and the half-life was 6.2 h. The “MEC (minimal effective concentration)” value in series [2] is 0.53 µM.

In the case of `Cc1cc(OCc2ncccc2F)c2nc(C)c(C(=O)NC(CCCC(F)(F)F)C(C)(C)O)n2c1` (single isomer, unassigned; ent-8) [Example 181, ent-8-[(3-fluoropyridin-2-yl)methoxy]-2,6-dimethyl-N-(7,7,7-trifluoro-2-hydroxy-2-methylheptan-3-yl)imidazo[1,2-a]pyridine-3-carboxamide (enantiomer B)], in series [1], the AUCnorm stood at 2.5 kg·h/L, the CLblood is 9.33 mL/min/kg, the MRT is 3.3 h and the half-life was 3.4 h. In addition, in series [2], the “MEC (minimal effective concentration)” value worked out at 0.3 µM.

Take `Cc1cc(OCc2ncccc2F)c2nc(C)c(C(=O)NC(CCC(F)(F)C(F)(F)F)C(C)(C)O)n2c1` (single isomer, unassigned; ent-8) [Example 187, ent-8-[(3-fluoropyridin-2-yl)methoxy]-2,6-dimethyl-N-(6,6,7,7,7-pentafluor-2-hydroxy-2-methylheptan-3-yl)imidazo[1,2-a]pyridine-3-carboxamide (enantiomer B)]: in series [1], the AUCnorm stood at 2.0 kg·h/L, the CLblood stood at 11.8 mL/min/kg, the MRT came to 4 h and the half-life was 4.6 h. Further, the “MEC (minimal effective concentration)” value in series [2] is 1 µM.

Consider `CCCC[C@H](CO)NC(=O)c1c(C)nc2c(OCc3c(F)cccc3F)c(F)ccn12` [Example 177, 8-[(2,6-Difluorobenzyl)oxy]-7-fluoro-N-[(2R)-1-hydroxyhexan-2-yl]-2-methylimidazo[1,2-a]-pyridine-3-carboxamide], for which, in series [2], the “MEC (minimal effective concentration)” value stood at 1.0 µM.
